Reference: US11365177B2, “Chemical uncouplers of respiration and methods of use thereof” (Dana-Farber Cancer Institute, Inc., priority 2017, dated 2022)
Peptide text beside a SMILES is read from it. * marks the point of attachment. Oleoyl = CCCCCCCC/C=C\CCCCCCCC(=O)*

tested on: C2C12 cells; experiment: Measurement of cellular respiration (Seahorse), uncoupling bioactivity; assay type: cell-based; settings: Mus musculus, Table 2, various head groups, 50 μM compound, maximal increase versus basal oligomycin-treated respiration, means SEM, n=3-6/group, read-out: % stimulation of respiration (baseline = 100%)
Procedure: Oligomycin was purchased from EMD Millipore, and FCCP and rotenone were purchased from Sigma. C2C12 cells were seeded at 35,000 cells/well in an XF24 cell culture microplate (V7-PS, Seahorse Bioscience) and analyzed the following day. On the day of analysis, the cells were washed once with Seahorse respiration buffer (8.3 g/l DMEM, 1.8 g/l NaCl, 1 mM pyruvate, 20 mM glucose, pen/strep), placed in 0.5 ml Seahorse respiration buffer, and incubated in a CO2-free incubator for 1 h. Port injection solutions were prepared as follows (final concentrations in assay in parentheses): 10 μM oligomycin (1 μM final), 500 μM indicated compound (50 μM final), 2 μM FCCP (0.2 μM final), and 30 μM rotenone (3 μM final). The Seahorse program was run as follows: basal measurement, 3 cycles; inject port A (oligomycin), 3 cycles; inject port B (compounds), 8 cycles; inject port C (FCCP), 3 cycles; inject port D (rotenone), 3 cycles. Each cycle consisted of mix 2 min, wait 0 min, and measure 2 min. For data expressed as a percentage of oligomycin-treated basal, the respiration at cycle 6 was normalized to 100%, and the maximum respiration at any time point between cycles 7 and 15 inclusive was used.
Tables 1-4 show uncoupling bioactivity of compounds of the disclosure with different fatty acid side chains. Respiration in C2C12 cells is shown as maximal increases versus basal oligomycin-treated respiration, which is normalized to 100%. Data are shown as means SEM, n=3-6/group.

`CCCCCCCC/C=C\CCCCCCCC(=O)N[C@@H](Cc1ccccc1)C(=O)O` [Compound 1, Oleoyl-L-phenylalanine] was tested. Which activity at 50 µM did it give?
Its activity at 50 µM is 161 ± 12%.

With `CCCCCCCC/C=C\CCCCCCCC(=O)N[C@H](C(=O)O)[C@@H](C)CC` [Compound 5, Oleoyl-L-isoleucine] as the molecule, how does the activity at 50 µM read?
Its activity at 50 µM is 167 ± 14%.

Which activity at 50 µM does the source give for `CCCCCCCC/C=C\CCCCCCCC(=O)NCCc1ccccc1` [Compound 3, N-phenethyloleamide] here?
Its activity at 50 µM is 104 ± 4%.

`CCCCCCCC/C=C\CCCCCCCC(=O)N[C@@H](CC(C)C)C(=O)O` [Compound 4, Oleoyl-L-leucine] was tested. Which activity at 50 µM did it give?
The activity at 50 µM was 178 ± 13%.

With `CCCCCCCC/C=C\CCCCCCCC(=O)N[C@@H](CCCCN)C(=O)O` [Compound 9, Oleoyl-L-lysine] as the molecule, how does the activity at 50 µM read?
Its activity at 50 µM is 108 ± 4%.

With `CCCCCCCC/C=C\CCCCCCCC(=O)N[C@@H](Cc1c[nH]c2ccccc12)C(=O)O` [Compound 8, Oleoyl-L-tryptophan] as the molecule, how does the activity at 50 µM read?
Its activity at 50 µM is 147 ± 9%.

With `CCCCCCCC/C=C\CCCCCCCC(=O)N[C@H](Cc1ccccc1)C(=O)O` [Compound 2, Oleoyl-D-phenylalanine] as the molecule, how does the activity at 50 µM read?
The activity at 50 µM was 173 ± 9%.

With `CCCCCCCC/C=C\CCCCCCCC(=O)N[C@@H](Cc1ccc(O)cc1)C(=O)O` [Compound 10, Oleoyl-L-tyrosine] as the molecule, how does the activity at 50 µM read?
The activity at 50 µM was 105 ± 13%.

For `CCCCCCCC/C=C\CCCCCCCC(=O)N[C@@H](CCC(=O)O)C(=O)O` [Compound 11, Oleoyl-L-glutamic acid], which activity at 50 µM is on record?
Its activity at 50 µM is 106 ± 7%.

With `CCCCCCCC/C=C\CCCCCCCC(=O)N[C@@H](CCC(N)=O)C(=O)O` [Compound 6, Oleoyl-L-glutamine] as the molecule, how does the activity at 50 µM read?
The activity at 50 µM was 164 ± 4%.

With `CCCCCCCC/C=C\CCCCCCCC(=O)NCCC(=O)O` [Compound 13, 3-Oleamidopropanoic acid] as the molecule, how does the activity at 50 µM read?
The activity at 50 µM was 185 ± 10%.

For `CCCCCCCC/C=C\CCCCCCCC(=O)N1CCC[C@H]1C(=O)O` [Compound 7, Oleoyl-L-proline], which activity at 50 µM is on record?
The activity at 50 µM was 182 ± 7%.

Which activity at 50 µM does the source give for `CCCCCCCC/C=C\CCCCCCCC(=O)NCC(=O)NCC(=O)O` [Compound 12, Oleoylglycylglycine] (Oleoyl-Gly-Gly-OH) here?
The activity at 50 µM was 206 ± 32%.

same assay, conditions: Mus musculus, Table 3, various fatty acid side chains, 50 μM compound, maximal increase versus basal oligomycin-treated respiration, means SEM, n=3-6/group, read-out: % stimulation of respiration (baseline = 100%)

For `CCCCC/C=C\C/C=C\C/C=C\C/C=C\CCCC(=O)N[C@@H](Cc1ccccc1)C(=O)O` [Compound 25, ((5Z,8Z,11Z,14Z)-Icosa-5,8,11,14-tetraenoyl)-L-phenylalanine], which activity at 50 µM is on record?
Its activity at 50 µM is 200 ± 12%.

How did the activity at 50 µM turn out when `CCCCCCCC/C=C/CCCCCCCC(=O)N[C@@H](Cc1ccccc1)C(=O)O` [Compound 21, (E)-Octadec-9-enoyl-L-phenylalanine] was run?
Its activity at 50 µM is 107 ± 3%.

For `CCCCCCCCCCCCCCCCCCCC(=O)N[C@@H](Cc1ccccc1)C(=O)O` [Compound 17, Icosanoyl-L-phenylalanine], which activity at 50 µM is on record?
The activity at 50 µM was 95 ± 8%.

How did the activity at 50 µM turn out when `CCCCCCCCCCCCCCCCCC(=O)N[C@@H](Cc1ccccc1)C(=O)O` [Compound 16, Stearoyl-L-phenylalanine] was run?
Its activity at 50 µM is 148 ± 12%.

`CC/C=C\C/C=C\C/C=C\C/C=C\C/C=C\CCCC(=O)N[C@@H](Cc1ccccc1)C(=O)O` [Compound 26, ((5Z,8Z,11Z,14Z,17Z)-Icosa-5,8,11,14,17-pentaenoyl)-L-phenylalanine] was tested. Which activity at 50 µM did it give?
Its activity at 50 µM is 259 ± 43%.

For `CCCCC/C=C\C/C=C\CCCCCCCC(=O)N[C@@H](Cc1ccccc1)C(=O)O` [Compound 19, ((9Z,12Z)-Octadeca-9,12-dienoyl)-L-phenylalanine], which activity at 50 µM is on record?
Its activity at 50 µM is 218 ± 10%.

For `CCCCCCCCCCCCCCCC(=O)N[C@@H](Cc1ccccc1)C(=O)O` [Compound 15, Palmitoyl-L-phenylalanine], which activity at 50 µM is on record?
The activity at 50 µM was 180 ± 20%.

With `CCCCCCCC/C=C\CCCCCCCCCC(=O)N[C@@H](Cc1ccccc1)C(=O)O` [Compound 24, (Z)-Icos-11-enoyl-L-phenylalanine] as the molecule, how does the activity at 50 µM read?
The activity at 50 µM was 103 ± 3%.

`CCCCCCCCCCC/C=C\CCCCC(=O)N[C@@H](Cc1ccccc1)C(=O)O` [Compound 22, (Z)-Octadec-6-enoyl-L-phenylalanine] was tested. Which activity at 50 µM did it give?
Its activity at 50 µM is 110 ± 12%.

For `CCCCCCCCCCCCCCCCCCCCCC(=O)N[C@@H](Cc1ccccc1)C(=O)O` [Compound 18, Docosanoyl-L-phenylalanine], which activity at 50 µM is on record?
The activity at 50 µM was 100 ± 3%.

For `CCCCCC/C=C\CCCCCCCCCC(=O)N[C@@H](Cc1ccccc1)C(=O)O` [Compound 23, (Z)-Octadec-11-enoyl-L-phenylalanine], which activity at 50 µM is on record?
The activity at 50 µM was 115 ± 8%.

How did the activity at 50 µM turn out when `CC/C=C\C/C=C\C/C=C\C/C=C\C/C=C\C/C=C\CCC(=O)N[C@@H](Cc1ccccc1)C(=O)O` [Compound 27, ((4Z,7Z,10Z,13Z,16Z,19Z)-Docosa-4,7,10,13,16,19-hexaenoyl)-L-phenylalanine] was run?
Its activity at 50 µM is 166 ± 11%.

`CCC/C=C\C/C=C\C/C=C\CCCCCCC(=O)N[C@@H](Cc1ccccc1)C(=O)O` [Compound 20, ((8Z,11Z,14Z)-Octadeca-8,11,14-trienoyl)-L-phenylalanine] was tested. Which activity at 50 µM did it give?
Its activity at 50 µM is 109 ± 12%.

`CCCCCCCCCCCC(=O)N[C@@H](Cc1ccccc1)C(=O)O` [Compound 14, Dodecanoyl-L-phenylalanine] was tested. Which activity at 50 µM did it give?
The activity at 50 µM was 96 ± 4%.

same assay, conditions: Mus musculus, Table 4, urea analogs, 50 μM compound, maximal increase versus basal oligomycin-treated respiration, means SEM, n=3-6/group, read-out: % stimulation of respiration (baseline = 100%)

Which activity at 50 µM does the source give for `CCCCCCCC/C=C\CCCCCCCCNC(=O)NCC(=O)O` [Compound 28, (Z)-(Octadec-9-en-1-ylcarbamoyl)glycine] here?
The activity at 50 µM was 104 ± 3%.

With `CCCCCCCC/C=C\CCCCCCCCNC(=O)N[C@@H](Cc1ccccc1)C(=O)O` [Compound 29, (Z)-(Octadec-9-en-1-ylcarbamoyl)-L-phenylalanine] as the molecule, how does the activity at 50 µM read?
The activity at 50 µM was 97 ± 5%.

same assay, conditions: Mus musculus, Table 5, cyclic head groups, 50 μM compound, maximal increase versus basal oligomycin-treated respiration, means SEM, n=3-6/group, read-out: % stimulation of respiration (baseline = 100%)

With `CCCCCCCC/C=C\CCCCCCCC(=O)N1Cc2ccccc2C[C@H]1C(=O)O` [Compound 31, (S)-2-Oleoyl-1,2,3,4-tetrahydroisoquinoline-3-carboxylic acid] as the molecule, how does the activity at 50 µM read?
The activity at 50 µM was 187 ± 19%.

With `CCCCCCCC/C=C\CCCCCCCC(=O)N1c2ccccc2C[C@H]1C(=O)O` [Compound 35, (S)-1-Oleoylindoline-2-carboxylic acid] as the molecule, how does the activity at 50 µM read?
Its activity at 50 µM is 146 ± 5%.

With `CCCCCCCC/C=C\CCCCCCCC(=O)N1CCCC[C@H]1C(=O)O` [Compound 30, (S)-1-Oleoylpiperidine-2-carboxylic acid] as the molecule, how does the activity at 50 µM read?
Its activity at 50 µM is 174 ± 3%.

Which activity at 50 µM does the source give for `CCCCCCCC/C=C\CCCCCCCC(=O)N1CCc2ccccc2C1C(=O)O` (stereo not drawn) [Compound 32, 2-Oleoyl-1,2,3,4-tetrahydroisoquinoline-1-carboxylic acid] here?
Its activity at 50 µM is 216 ± 17%.
